Results reported in ChEMBL document CHEMBL1828496 (Eur J Med Chem, 2011).

Tests used:
[1] = molecular target: T1, Amine oxidase [flavin-containing] A (Homo sapiens, UniProt P21397); experiment: Inhibition of human recombinant MAO-A expressed in baculovirus infected BTI-TN-5B1-4 cells assessed as production of hydrogen peroxide from p-tyramine at 100 uM after 15 mins by microplate fluorescence assay; details: for inhibition (INH): human, bti-tn-5b1-4, 0.25 h, 100 µM; for inhibition at 100 µM: BTI-TN-5B1-4, human, 0.25 h
T1 sequence (P21397 whole entry): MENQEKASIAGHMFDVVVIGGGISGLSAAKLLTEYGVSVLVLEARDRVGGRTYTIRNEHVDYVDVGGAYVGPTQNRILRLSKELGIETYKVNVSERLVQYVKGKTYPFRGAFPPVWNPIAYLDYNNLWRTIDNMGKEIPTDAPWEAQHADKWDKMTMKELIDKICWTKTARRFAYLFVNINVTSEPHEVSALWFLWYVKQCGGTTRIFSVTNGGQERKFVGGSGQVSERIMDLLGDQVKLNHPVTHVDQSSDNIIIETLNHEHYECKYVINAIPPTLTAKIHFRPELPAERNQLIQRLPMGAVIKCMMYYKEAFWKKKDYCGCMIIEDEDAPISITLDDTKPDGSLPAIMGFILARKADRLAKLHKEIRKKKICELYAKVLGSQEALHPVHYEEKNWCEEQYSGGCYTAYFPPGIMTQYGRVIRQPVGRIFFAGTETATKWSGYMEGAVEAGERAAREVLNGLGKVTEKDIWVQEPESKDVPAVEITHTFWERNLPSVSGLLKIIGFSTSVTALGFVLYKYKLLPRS

[2] = molecular target: T2, Amine oxidase [flavin-containing] B (Homo sapiens, UniProt P27338); experiment: biochemical; type: cell-based, BTI-TN-5B1-4
T2 sequence (P27338 whole entry): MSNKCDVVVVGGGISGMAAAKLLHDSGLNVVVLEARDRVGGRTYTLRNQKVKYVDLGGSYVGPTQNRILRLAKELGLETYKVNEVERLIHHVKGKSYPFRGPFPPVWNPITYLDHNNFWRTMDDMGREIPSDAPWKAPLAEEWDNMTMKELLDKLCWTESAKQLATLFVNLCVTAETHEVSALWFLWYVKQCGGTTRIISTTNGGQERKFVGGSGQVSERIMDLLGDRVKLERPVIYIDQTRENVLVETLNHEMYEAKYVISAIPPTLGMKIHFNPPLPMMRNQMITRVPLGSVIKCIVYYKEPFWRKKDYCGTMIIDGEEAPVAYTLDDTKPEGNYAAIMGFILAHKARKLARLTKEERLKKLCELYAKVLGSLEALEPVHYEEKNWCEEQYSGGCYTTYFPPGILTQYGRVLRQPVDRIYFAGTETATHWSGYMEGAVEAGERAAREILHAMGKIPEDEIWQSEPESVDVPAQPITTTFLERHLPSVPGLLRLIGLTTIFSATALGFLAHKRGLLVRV
Description: Inhibition of human recombinant MAO-B expressed in baculovirus infected BTI-TN-5B1-4 cells assessed as production of hydrogen peroxide from p-tyramine after 15 mins by microplate fluorescence assay

Homo sapiens = organism: Homo sapiens; experiment: Selectivity ratio of IC50 for human recombinant MAO-A to IC50 for human recombinant MAO-B
[3] = Hydrolytic stability of the compound in water after 1 to 24 hrs by NMR spectroscopic analysis; type: physicochemical
[4] = Hydrolytic stability of the compound in dimethyl sulfoxide after 1 to 24 hrs by NMR spectroscopic analysis; type: physicochemical
[5] = Hydrolytic stability of the compound in phosphate buffer at pH 7.4 after 1 to 24 hrs by NMR spectroscopic analysis; type: physicochemical
[6] = Hydrolytic stability of the compound in acetonitrile after 1 to 24 hrs by NMR spectroscopic analysis; type: physicochemical
[7] = molecular target: T1, Amine oxidase [flavin-containing] A; experiment: Inhibition of human recombinant MAO-A expressed in baculovirus infected BTI-TN-5B1-4 cells assessed as production of hydrogen peroxide from p-tyramine after 15 mins by microplate fluorescence assay
[8] = molecular target: T2, Amine oxidase [flavin-containing] B; experiment: Inhibition of human recombinant MAO-B expressed in baculovirus infected BTI-TN-5B1-4 cells assessed as production of hydrogen peroxide from p-tyramine at 100 uM after 15 mins by microplate fluorescence assay; details: for inhibition at 100 µM: BTI-TN-5B1-4, human, 0.25 h; for inhibition (INH): human, bti-tn-5b1-4, 0.25 h, 100 µM

| Compound | inhibition (INH) [1] | IC50 [2] | Ratio IC50 (Homo sapiens) | also measured |
| --- | --- | --- | --- | --- |
| CCOC(=O)c1cc2cc(OC)ccc2oc1=O | Not Active | 21.6 µM | > 4.6 | Stability [3]: Stable; Stability [4]: Stable; Stability [5]: Stable; Stability [6]: Stable |
| CC(=O)c1cc2cc(Br)ccc2oc1=O | – | – | < 0.52 | IC50 [7]: 51.6 µM; inhibition at 100 µM [8]: 40% |
| O=C(c1ccccc1)c1cc2ccccc2oc1=O | Not Active | – | – | inhibition (INH) [8]: Not Active |
| CCOC(=O)c1cc2ccc(OCc3ccc(Cl)c(Cl)c3)cc2oc1=O | Not Active | 0.00947 µM | > 10600 | Stability [3]: Stable; Stability [4]: Stable; Stability [5]: Stable; Stability [6]: Stable |
| O=C(O)c1cc2cc(O)ccc2oc1=O | – | – | < 0.4 | IC50 [7]: 40.2 µM; inhibition at 100 µM [8]: 40% |
| O=C(O)c1cc2cccc(O)c2oc1=O | – | – | < 0.6 | IC50 [7]: 59.6 µM; inhibition at 100 µM [8]: 40% |
| CC(=O)c1cc2ccc(O)cc2oc1=O | Not Active | – | – | inhibition (INH) [8]: Not Active |
| CCOC(=O)c1cc2cc(Br)cc(Br)c2oc1=O | Not Active | – | – | inhibition at 100 µM [8]: 40% |
| CCOC(=O)c1cc2cc(O)ccc2oc1=O | – | 10.1 µM | 4.9 | IC50 [7]: 49.1 µM |
| O=C(NNc1ccccc1[N+](=O)[O-])c1cc2ccccc2oc1=O | – | – | < 0.39 | IC50 [7]: 39.6 µM; inhibition (INH) [8]: Not Active |
| CC(C)(C)c1ccc(COc2ccc3cc(C(=O)O)c(=O)oc3c2)cc1 | Not Active | – | – | inhibition (INH) [8]: Not Active |
| O=C(O)c1cc2ccc(OCc3cccc(Cl)c3)cc2oc1=O | Not Active | 1.8 µM | > 55 | – |
| COc1ccc2cc(C(=O)O)c(=O)oc2c1 | Not Active | – | – | inhibition at 100 µM [8]: 40% |
| CC(=O)c1cc2cc(Cl)cc(Br)c2oc1=O | – | 0.14 µM | 394 | IC50 [7]: 55.2 µM |
| CC(=O)c1cc2cc(O)ccc2oc1=O | – | 64.2 µM | > 1.6 | inhibition at 100 µM [1]: 40% |
| CC(=O)c1cc2ccccc2oc1=O [3-ACETYLCOUMARIN] | Not Active | 14.5 µM | > 6.9 | – |
| CC(=O)c1cc2cc(I)cc(I)c2oc1=O | Not Active | – | – | inhibition (INH) [8]: Not Active |
| CCOC(=O)c1cc2ccc(OCc3cccc(Cl)c3)cc2oc1=O | Not Active | 0.0612 µM | > 1630 | Stability [3]: Stable; Stability [4]: Stable; Stability [5]: Stable; Stability [6]: Stable |
| O=C(O)c1cc2cc(I)cc(I)c2oc1=O | Not Active | 17.8 µM | > 5.6 | – |

| Compound | inhibition (INH) [1] | IC50 [2] | Ratio IC50 (Homo sapiens) | also measured |
| --- | --- | --- | --- | --- |
| CCOC(=O)c1cc2ccc(OCc3ccccc3)cc2oc1=O | Not Active | 0.00701 µM | > 14300 | Stability [3]: Stable; Stability [4]: Stable; Stability [5]: Stable; Stability [6]: Stable |
| O=C(c1ccccc1)c1cc2cc(I)cc(I)c2oc1=O | Not Active | – | – | inhibition (INH) [8]: Not Active |
| CC(=O)c1cc2c(ccc3ccccc32)oc1=O | – | 2.01 µM | > 50 | inhibition at 100 µM [1]: 40% |
| COc1ccc2oc(=O)c(C(=O)O)cc2c1 | Not Active | – | – | inhibition (INH) [8]: Not Active |
| CC(=O)c1cc2cc(Cl)ccc2oc1=O | Not Active | 17.7 µM | > 5.6 | – |
| CC(=O)c1cc2cc(C)ccc2oc1=O | Not Active | – | – | inhibition at 100 µM [8]: 40% |
| O=C(NNc1ccc([N+](=O)[O-])cc1[N+](=O)[O-])c1cc2ccccc2oc1=O | – | 56.1 µM | 1.08 | IC50 [7]: 60.5 µM |
| CC(=O)c1cc2cccc(O)c2oc1=O | – | 42.1 µM | 0.93 | IC50 [7]: 39.4 µM |
| O=C(c1ccccc1)c1cc2cc(Br)ccc2oc1=O | Not Active | – | – | inhibition (INH) [8]: Not Active |
| O=C(NNc1ccc(Cl)cc1)c1cc2ccccc2oc1=O | – | 1.19 µM | 40.4 | IC50 [7]: 48 µM |
| O=C(O)c1cc2cc(Cl)cc(Br)c2oc1=O | Not Active | – | – | inhibition (INH) [8]: Not Active |
| O=C(c1ccccc1)c1cc2ccc(O)cc2oc1=O | Not Active | – | – | inhibition (INH) [8]: Not Active |
| Cc1ccc(NNC(=O)c2cc3ccccc3oc2=O)cc1 | – | – | < 0.58 | IC50 [7]: 58.4 µM; inhibition (INH) [8]: Not Active |
| O=C(c1ccccc1)c1cc2cc(O)ccc2oc1=O | – | 18 µM | 2.9 | IC50 [7]: 51.7 µM |
| O=C(O)c1cc2ccc(OCc3ccc(Cl)c(Cl)c3)cc2oc1=O | Not Active | 0.41 µM | > 244 | – |
| CCN(CC)c1ccc2cc(C(C)=O)c(=O)oc2c1 | Not Active | 18.1 µM | > 5.5 | – |
| COc1ccc2cc(C(C)=O)c(=O)oc2c1 | – | 15.4 µM | > 6.5 | inhibition at 100 µM [1]: 40% |
| CCOC(=O)c1cc2ccc(N(CC)CC)cc2oc1=O | Not Active | 45.5 µM | > 2.2 | – |

Further lines, with some results ahead:

| inhibition (INH) [1] | IC50 [2] | Ratio IC50 (Homo sapiens) | Compound | also measured |
| --- | --- | --- | --- | --- |
| Not Active | 8.62 µM | > 11.6 | O=C(O)c1cc2ccc(OC3CCCCCC3)cc2oc1=O | – |
| Not Active | – | – | CCOC(=O)c1cc2ccc(O)cc2oc1=O | inhibition (INH) [8]: Not Active |
| – | 14.8 µM | 2.7 | CCOC(=O)c1cc2cccc(O)c2oc1=O | IC50 [7]: 40.5 µM |
| Not Active | 17.5 µM | > 5.7 | CCOC(=O)c1cc2cc(Cl)cc(Br)c2oc1=O | – |
| Not Active | – | – | Cc1ccc2oc(=O)c(C(=O)c3ccccc3)cc2c1 | inhibition at 100 µM [8]: 40% |
| – | 27.1 µM | 1.5 | O=C(c1ccccc1)c1cc2cccc(O)c2oc1=O | IC50 [7]: 40.5 µM |
| Not Active | – | – | O=C(c1ccccc1)c1cc2cc(Cl)ccc2oc1=O | inhibition (INH) [8]: Not Active |
| Not Active | – | – | O=C(c1ccccc1)c1cc2c(ccc3ccccc32)oc1=O | inhibition (INH) [8]: Not Active |
| Not Active | 3.75 µM | > 27 | CCOC(=O)c1cc2ccc(OCc3ccc(C(C)(C)C)cc3)cc2oc1=O | Stability [3]: Stable; Stability [4]: Stable; Stability [5]: Stable; Stability [6]: Stable |
| – | 23.5 µM | > 4.3 | CCOC(=O)c1cc2ccc(OC)cc2oc1=O | inhibition at 100 µM [1]: 40% |
| Not Active | – | – | O=C(c1ccccc1)c1cc2cc(Cl)cc(Br)c2oc1=O | inhibition at 100 µM [8]: 40% |
| Not Active | 23.8 µM | > 4.2 | CCN(CC)c1ccc2cc(C(=O)c3ccccc3)c(=O)oc2c1 | – |
| Not Active | 0.00322 µM | > 31100 | NNC(=O)c1cc2ccccc2oc1=O | Stability [3]: Stable; Stability [4]: Stable; Stability [5]: Stable; Stability [6]: Stable |
| Not Active | – | – | COc1ccc2cc(C(=O)c3ccccc3)c(=O)oc2c1 | inhibition at 100 µM [8]: 40% |
| Not Active | 0.2 µM | > 500 | CC(=O)c1cc2cc(Br)cc(Br)c2oc1=O | – |
| Not Active | – | – | O=C(c1ccccc1)c1cc2cc(Br)cc(Br)c2oc1=O | inhibition at 100 µM [8]: 40% |
| Not Active | – | – | O=C(O)c1cc2cc(Br)cc(Br)c2oc1=O | inhibition (INH) [8]: Not Active |
